Assay results taken from publication PMC10313070, “Design, in silico and pharmacological evaluation of a peptide inhibitor of BACE-1” (Frontiers in Pharmacology, 2023).
Entries after “also recorded” stand apart in the source; their conditions may differ. No end group written: not given here.

Columns and labels:
[1] = system: SH-SY5Y cells; parameters: method as in Lee et al., 2019; settings: ref Lee et al., 2019; cited from earlier work
[2] = system: BACE-1; parameters: method as in Lee et al., 2019; settings: ref Lee et al., 2019; cited from earlier work
[3] = Peptide quantification in mouse organs by mass spectrometry; format: in vivo; settings: mice, 4 mg/kg i.v.
Method: (§1) A single dose of the peptide diluted in sterile PBS (pH 7.4) was injected intravenously in the bolus into the caudal vein of mice (n = 3) at a concentration of 4 mg/kg (0.2 mL). A group of animals (n = 3) received the sterile saline solution for the plasma and organ control, without the peptide (named ‘basal’). Blood was taken after 0, 5, and 30 min and 2, 6, and 24 h after injection. At these times, blood was collected via the retro-orbital route using a Pasteur pipette and dispensed into plastic tubes containing EDTA. The final blood volume was subjected to centrifugation at 1,500 rpm for 10 min at room temperature to obtain plasma, which was stored in a −80°C freezer until the analysis.
Moreover, organs were obtained at the same times, after a lethal injection of anesthetics (ketamine 300 mg/kg and xylazine 30 mg/kg). The organs collected included the brain, pancreas, spleen, kidneys, lungs, and liver. The organs were washed with the saline solution to remove excess blood, frozen in liquid nitrogen, and kept at −80°C until use. For the experiments, organs were submerged in 1 mL of 50 mM PBS with pH 7.5 containing peptidases inhibitors (aprotinin, bestatin, E-64, leupeptin, and pepstatin A, a protease inhibitor cocktail, Sigma-Aldrich) and lysed in a tissue and cell disruptor (ULTRA-TURRAX IKA, Staufen, Germany). The lysate was centrifuged for 2 min at 13,200 rpm at 4°C, and the supernatant resulting from centrifugation was stored in a −80°C freezer until the analysis.
(§2) Both plasma and organs (150 μL) were incubated with 100 mM DL-dithiothreitol at room temperature for 30 min; after that, they were incubated to 300 mM iodoacetamide at room temperature for another 30 min in the dark. Subsequently, 150 μL of 0.1% formic acid solution and 400 μL of Milli-Q water were added and agitated for 5 min. The samples were then submitted to solid-phase extraction using a C18 cartridge (Supelco) with elution in a 60:40 acetonitrile:water solution (v/v). The eluate was inserted by mass spectrometry for analysis and quantification.
(§3) The determination and quantification of the peptide in plasma and organs of mice were performed by liquid chromatography (UPLC system, Waters Co.) coupled to mass spectrometry ESI-Xevo TQ-S (Waters Co., United States). The samples were inserted in a C18 column (Luna, 5 μm, 150 × 4.6 mm, Phenomenex) and eluted by 70% methanol in water, containing 0.05% formic acid in a constant flow of 0.3 mL/min. The ion was monitored at the positive ionization mode, 150°C source temperature, 550°C desolvation temperature, 800 L/h desolvation gas flow, 2 kV for capillary, and […] cone voltage. Data were acquired and analyzed using MassLynx 4.
(§4) To define the relationship between the instrument response and the known concentration of the peptide, a calibration curve with six points of the peptide (0.1–20 μg/mL for plasma and 5–40 μg/mL for organs) was generated in a range defined according to the sensitivity of the method and the expected concentrations of the samples in animals (based on the amount of peptide injected).
(§5) The plasma concentration (Cp), in µg/L, was determined by mass spectrometric analysis, and then, area data were analyzed using the PKSolver add-in program for Microsoft Excel. Pharmacokinetics parameters as the natural logarithm of Cp (lnCp), Cp0, half-life, and clearance were calculated in a compartmental analysis of plasma data after the intravenous bolus input ([Zhang et al., 2010]). For organs, data are present as mean ± SD for each point.

[4] = biological target: T1, recombinant BACE-1 (Homo sapiens, UniProt P56817); test: Enzymatic kinetics on recombinant BACE-1 (Lineweaver-Burk); format: biochemical; settings: 10 μM peptide, substrate 0–32 µM
T1 construct: purchased Sigma-Aldrich MAK237
T1 sequence (P56817 46-501): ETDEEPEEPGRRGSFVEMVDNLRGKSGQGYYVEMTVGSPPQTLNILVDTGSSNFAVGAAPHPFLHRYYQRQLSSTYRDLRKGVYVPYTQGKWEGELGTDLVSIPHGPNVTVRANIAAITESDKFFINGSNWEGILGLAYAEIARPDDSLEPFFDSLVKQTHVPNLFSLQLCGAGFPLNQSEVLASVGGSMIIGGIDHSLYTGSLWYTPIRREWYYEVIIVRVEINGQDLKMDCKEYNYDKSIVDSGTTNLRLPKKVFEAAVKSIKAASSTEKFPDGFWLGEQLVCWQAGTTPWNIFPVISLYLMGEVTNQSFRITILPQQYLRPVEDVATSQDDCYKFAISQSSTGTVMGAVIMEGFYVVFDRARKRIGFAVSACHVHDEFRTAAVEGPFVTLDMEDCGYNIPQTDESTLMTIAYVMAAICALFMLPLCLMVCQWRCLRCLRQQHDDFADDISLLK
Method: The peptide was commercially obtained (manufactured by Biotik, commercialized by FastBio, Brazil) and synthetized by the solid phase with >95% purity. The peptide was tested using an enzymatic kinetics model, in which 10 μM of peptide (diluted in 0.9% saline solution) was incubated with recombinant BACE-1 and reaction buffer for 15 min at room temperature (MAK237, Sigma-Aldrich, St Louis, MO, United States). After that, H-Arg-Glu (EDANS)[…](DABCYL)Arg-OH quencher substrate (0–32 µM) was added to the reaction mixture. Readings were taken using a fluorimeter (Glomax, Promega, Madison, WI, United States) every 5 min at 37° in a λex = 335 and λem = 510. Experiments were conducted in triplicate in two independent sets, and the mean of fluorescence was obtained for further calculations. The velocity of the reaction was calculated as ∆ fluorescence values at ∆ time for each substrate concentration. 1/V and 1/S values were obtained and plotted in a graph (Lineweaver–Burk plot), and kinetic parameters (slope, Vmax, Km, and Ki) were calculated as the mean ± SD using GraphPad Prism v5.

[5] = in vivo; parameters: species or system mice; settings: mouse
Method: Authorization for pharmacokinetics analyses was obtained from the Ethics Committee of Instituto Butantan (CEUAIB 58872400322), where the experiments with animals were carried out. Healthy adult male Swiss mice weighing approximately 25 g were used. All animals were placed in microisolators for a 12-h light/dark cycle, 70% humidity, and a constant average temperature (22°C).
as §1, §2, §3, §4
Each analysis lot contained the following samples: a calibration curve consisting of a blank sample (peptide-free biological matrix), samples containing peptide standard, and plasma or organ samples. Calibration functions were calculated using the peak areas of the peptide. The peptide concentrations in the samples were calculated from the weighted linear regression equation (1/×2) obtained from the calibration curve (peptide concentration as the function of the area). This regression model (1/×2) was used because of the amplitude of the calibration curve.
as §5

[6] = Histology of organs and toxicity after peptide injection; format: in vivo, mice
Excerpt: Organs were removed and immediately fixed in Bouin’s solution for processing by dehydration ethanol sessions and historesin embedding to obtain 3 µm thick transversal slides. Sections were stained with hematoxylin–eosin and examined using a light microscope for a qualitative analysis.

[7] = system: BACE-1; parameters: method as in Wu et al., 2016; settings: ref Wu et al., 2016; cited from earlier work

Leu–Asn
Aβ production in SH-SY5Y cells [1]: reducing the Aβ production
BACE-1 inhibitory activity among fragments derived from the original peptide [2]: most potent activity

SLAFVDVLN [peptide]
Peptide concentration in the kidneys over time [3]: increased 30 min after the injection, slightly decreased after 2 h, but increased after 6 h
Time of peak of the peptide in the brain [3]: 2 h
Time of peak of the peptide in the liver [3]: 30 min
Time of peak of the peptide in the spleen [3]: 30 min
Time the peptide could be found in the brain [3]: up to 6 h
Peptide concentration in the lungs ([3]; 5 min after injection): high concentration
Peptide in the pancreas ([3]; 4 mg/kg): not possible to identify; also recorded: could not be found
Ki [4]: 94 nM
AUC(0-inf) ([5]; male, Swiss, iv, 4 mg/kg): 2600 ng·h/mL
AUC(0-t) ([5]; male, Swiss, iv, 4 mg/kg): 2600 ng·h/mL
C0 ([5]; male, Swiss, iv, 4 mg/kg): 2600 ng/mL
MRT ([5]; male, Swiss, iv, 4 mg/kg): 1 h
half-life ([5]; male, Swiss, iv, 4 mg/kg, t1/2): ~1 h
Vss [5]: 0.0015
clearance [5]: 0.0015
Enzymatic cleavage of the peptide in vivo (intact mass, fragments by mass spectrometry) ([5]; iv): no enzymatic cleavage
AUMC ([5]; iv, 4 mg/kg): 2,595.96 μg/L*h^2
CL ([5]; iv, 4 mg/kg): 0.00154 (mg/kg)/(μg/L)/h
V ([5]; iv, 4 mg/kg): 0.00154 (mg/kg)/(μg/L)
Vss ([5]; iv, 4 mg/kg): 0.0015 mg/kg/(μg/L)
Clinical signals of toxicity ([6]; mice, single dose): no clinical signals of toxicity were observed
Histological alterations (cell/tissue morphology, inflammatory infiltrate) ([6]; spleen, liver, pancreas, lungs, kidneys, 5 and 30 min, 2 and 6 h after single 4 mg/kg i.v. dose, 4 mg/kg): no morphological alteration in any organ; also recorded: No alterations were detected

pyrazinecarboxamide
IC50 [7]: < 1 nM
